What was measured:
Assay type in all cases: in vivo
Amaranthus retroflexus = assay: Pre-emergence herbicidal action; details: 320 g of a.i./ha, visual scoring 3-4 weeks after treatment
Source text: (§1) Seeds or rhizome pieces of mono- and dicotyledonous harmful plants are placed in sandy loam in pots of a diameter of 9 to 13 cm and covered with soil. The herbicides, formulated as emulsifiable concentrates or dusts, are applied to the surface of the covering soil in the form of aqueous dispersions or suspensions or emulsions at an application rate of 300 to 800 l of water/ha (converted), […] For further cultivation of the plants, the pots are then kept in a greenhouse under optimum conditions. The visual scoring of the damage to the harmful plants is carried out 3-4 weeks after the treatment. Here, the compounds of Nos. 1-3, 1-15, 1-44 and 1-1407 show an activity of at least 90% against Echinochloa crus galli. The compounds of Nos. 1-15, 1-45, 1-1407 and 1-1419 show an activity of at least 90% against Abutilon theophrasti. The compounds of Nos. 1-3, 1-45, 1-1406 and 1-1418 show an activity of at least 90% against Amaranthus retroflexus. The compounds of Nos. 1-44, 1-1406, 1-1407 and 1-1419 show an activity of at least 90% against Stellaria media.
(§2) The comparative tests of Tables 1 to 24 below show the superiority of the compounds according to the invention over the compounds known from the prior art.
(§3) • ABUTH Abutilon theophrasti ALOMY Alopecurus myosuroides • AMARE Amaranthus retroflexus AVEFA Avena fatua • CHEAL Chenopodium album ECHCG Echinochloa crus galli • GALAP Galium aparine LOLMU Lolium multiflorum • MATIN Matricaria inodora PHBPU Pharbitis purpureum • POLCO Fallopia convolvulus STEME Stellaria media • VERPE Veronica persica VIOTR Viola tricolor • XANST Xanthium strumarium Crop Plants • GLXMA Glycine max (soybeans) TRZAS Triticum aestivum (wheat) • ZEAMX Zea mays (corn)

Viola tricolor [1] = assay: Pre-emergence herbicidal action; details: 320 g of a.i./ha
Source text: as §1, §2, §3

Abutilon theophrasti = assay: Pre-emergence herbicidal action; details: 320 g of a.i./ha, visual scoring 3-4 weeks after treatment
Source text: (§4) Seeds or rhizome pieces of mono- and dicotyledonous harmful plants are placed in sandy loam in pots of a diameter of 9 to 13 cm and covered with soil. The herbicides, formulated as emulsifiable concentrates or dusts, are applied to the surface of the covering soil in the form of aqueous dispersions or suspensions or emulsions at an application rate of 300 to 800 l of water/ha (converted), at a dosage of 320 grams per hectare. For further cultivation of the plants, the pots are then kept in a greenhouse under optimum conditions. The visual scoring of the damage to the harmful plants is carried out 3-4 weeks after the treatment. Here, the compounds of Nos. 1-3, 1-15, 1-44 and 1-1407 show an activity of at least 90% against Echinochloa crus galli. The compounds of Nos. 1-15, 1-45, 1-1407 and 1-1419 show an activity of at least 90% against Abutilon theophrasti. The compounds of Nos. 1-3, 1-45, 1-1406 and 1-1418 show an activity of at least 90% against Amaranthus retroflexus. The compounds of Nos. 1-44, 1-1406, 1-1407 and 1-1419 show an activity of at least 90% against Stellaria media.
as §2, §3

Fallopia convolvulus [2] = assay: Pre-emergence herbicidal action; details: 320 g of a.i./ha
Source text: as §4, §2, §3

Matricaria inodora [3] = assay: Pre-emergence herbicidal action; details: Tripleurospermum inodorum, read-out: Herbicidal activity in % against MATIN; for pest or weed control at 320 g/ha: 320 g of a.i./ha; for pest or weed control at 80 g/ha: 80 g of a.i./ha
Source text: as §4, §2, §3

Matricaria inodora [4] = assay: Post-emergence herbicidal action; details: Tripleurospermum inodorum, 80 g of a.i./ha, read-out: Herbicidal activity in % against MATIN
Method: (§5) Seeds of mono- and dicotyledonous harmful plants are placed in sandy loam in cardboard pots, covered with soil and grown in the greenhouse under good growth conditions. Two to three weeks after sowing, the test plants are treated at the three-leaf stage. The compounds according to the invention, which are formulated as wettable powders or as emulsion concentrates, are sprayed at an application rate of 600 to 800 l of water/ha (converted) in a dosage of 80 grams per hectare onto the surface of the green plant parts. The visual scoring of the damage to the harmful plants is carried out 3-4 weeks after the treatment. Here, the compounds of Nos. 1-39, 1-40, 1-1382 and 1-2091 show an activity of at least 90% against Echinochloa crus galli. The compounds of Nos. 1-3, 1-44 and 1-2091 shown an activity of at least 90% against Abutilon theophrasti. The compounds of Nos. 1-39, 1-40 and 1-1382 show an activity of at least 90% against Veronica persica. The compounds of Nos. 1-3, 1-38, 1-39, 1-1406 and 1-1407 show an activity of at least 90% against Stellaria media.
as §2, §3

Stellaria media [5] = assay: Post-emergence herbicidal action; details: Stellaria media, 80 g of a.i./ha, visual scoring 3-4 weeks after treatment, read-out: Herbicidal activity in % against STEME
Method: as §5, §2, §3

Veronica persica [6] = assay: Post-emergence herbicidal action; details: 80 g of a.i./ha, visual scoring 3-4 weeks after treatment, read-out: Herbicidal activity in % against VERPE
Method: as §5, §2, §3

Xanthium strumarium [7] = assay: Post-emergence herbicidal action; details: 80 g of a.i./ha, read-out: Herbicidal activity in % against XANST
Method: as §5, §2, §3

Galium aparine = assay: Post-emergence herbicidal action; details: 80 g of a.i./ha
Method: as §5, with “The compounds according to the invention, which are formulated as wettable powders or as emulsion concentrates, are sprayed at an application rate of 600 to 800 l of water/ha (converted) in a dosage of 80 grams per hectare onto the surface of the green plant parts.” left out
as §2, §3

Viola tricolor [8] = assay: Post-emergence herbicidal action; details: 80 g of a.i./ha, read-out: Herbicidal activity in % against VIOTR
Method: as §5, §2, §3

[9] = system: Triticum aestivum (wheat); assay: Post-emergence damage of crop plants; details: 80 g of a.i./ha, crop plant wheat
Method: as §5, with “The compounds according to the invention, which are formulated as wettable powders or as emulsion concentrates, are sprayed at an application rate of 600 to 800 l of water/ha (converted) in a dosage of 80 grams per hectare onto the surface of the green plant parts.” left out
as §2, §3

Stellaria media [10] = assay: Pre-emergence herbicidal action; details: 80 g of a.i./ha
Source text: as §1, §2, §3

Veronica persica [11] = assay: Pre-emergence herbicidal action; details: 80 g of a.i./ha
Source text: as §1, §2, §3

Pharbitis purpureum [12] = assay: Pre-emergence herbicidal action; details: 320 g of a.i./ha
Source text: as §4, §2, §3

Xanthium strumarium [13] = assay: Pre-emergence herbicidal action; details: 320 g of a.i./ha
Source text: as §4, §2, §3

Fallopia convolvulus [14] = assay: Post-emergence herbicidal action; details: 80 g of a.i./ha
Method: as §5, §2, §3

Pharbitis purpureum [15] = assay: Post-emergence herbicidal action; details: 80 g of a.i./ha
Method: as §5, §2, §3

CSc1c(S(C)(=O)=O)ccc(C(=O)c2c(C3CC3)nn(C)c2O)c1Cl [drawing 26]
Herbicidal activity in % against AMARE (Amaranthus retroflexus): 90% | Herbicidal activity in % against VIOTR (Viola tricolor [1]): 50% | Herbicidal activity in % against ABUTH (Abutilon theophrasti): 60% | Herbicidal activity in % against POLCO (Fallopia convolvulus [2]): 40% | pest or weed control at 320 g/ha (Matricaria inodora [3]): 0%

Cn1nc(C2CC2)c(C(=O)c2ccc(Cl)c(S(=O)(=O)CC3CC3)c2Cl)c1O [drawing 57]
pest or weed control at 80 g/ha (Matricaria inodora [4]): 50% | pest or weed control at 80 g/ha (Stellaria media [5]): 100% | pest or weed control at 80 g/ha (Veronica persica [6]): 90% | pest or weed control at 80 g/ha (Xanthium strumarium [7]): 90% | Herbicidal activity in % against GALAP (Galium aparine): 70%

Cn1nc(C2CC2)c(C(=O)c2ccc(Cl)c(S(C)(=O)=O)c2Cl)c1O [drawing 58, reference compound]
pest or weed control at 80 g/ha (Matricaria inodora [4]): 0% | pest or weed control at 80 g/ha (Stellaria media [5]): 80% | pest or weed control at 80 g/ha (Veronica persica [6]): 60% | pest or weed control at 80 g/ha (Xanthium strumarium [7]): 70% | Herbicidal activity in % against GALAP (Galium aparine): 40%

Cc1c(C(=O)c2c(C3CC3)nn(C)c2O)ccc(S(C)(=O)=O)c1[S+](C)[O-] (centres unmarked) [reference compound]
pest or weed control at 80 g/ha (Veronica persica [6]): 80% | pest or weed control at 80 g/ha (Viola tricolor [8]): 60% | Damage to TRZAS [9]: 50

CCSc1c(Cl)ccc(C(=O)c2c(C3CC3)nn(C)c2O)c1C [drawing 18, reference compound]
Herbicidal activity in % against STEME (Stellaria media [10]): 60% | Herbicidal activity in % against VERPE (Veronica persica [11]): 30% | pest or weed control at 80 g/ha (Matricaria inodora [3]): 30%

CCSc1c(S(C)(=O)=O)ccc(C(=O)c2c(C3CC3)nn(C)c2O)c1Cl [drawing 24]
Herbicidal activity in % against AMARE (Amaranthus retroflexus): 90% | Herbicidal activity in % against VIOTR (Viola tricolor [1]): 50% | Herbicidal activity in % against ABUTH (Abutilon theophrasti): 70% | Herbicidal activity in % against POLCO (Fallopia convolvulus [2]): 0% | pest or weed control at 320 g/ha (Matricaria inodora [3]): 0%

COCC[S+]([O-])c1c(S(C)(=O)=O)ccc(C(=O)c2c(C3CC3)nn(C)c2O)c1C (centres unmarked) [drawing 33]
pest or weed control at 80 g/ha (Veronica persica [6]): 100% | pest or weed control at 80 g/ha (Viola tricolor [8]): 70% | Damage to TRZAS [9]: 20

CCS(=O)(=O)c1c(S(C)(=O)=O)ccc(C(=O)c2c(C3CC3)nn(C)c2O)c1C [drawing 14, reference compound]
Herbicidal activity in % against POLCO (Fallopia convolvulus [2]): 20% | Herbicidal activity in % against PHBPU (Pharbitis purpureum [12]): 20% | Herbicidal activity in % against XANST (Xanthium strumarium [13]): 0%

COCCSc1c(Cl)ccc(C(=O)c2c(C3CC3)nn(C)c2O)c1C [drawing 17]
Herbicidal activity in % against STEME (Stellaria media [10]): 90% | Herbicidal activity in % against VERPE (Veronica persica [11]): 90% | pest or weed control at 80 g/ha (Matricaria inodora [3]): 60%

CCOCCSc1c(S(C)(=O)=O)ccc(C(=O)c2c(C3CC3)nn(C)c2O)c1C
Herbicidal activity in % against POLCO (Fallopia convolvulus [14]): 70% | Herbicidal activity in % against PHBPU (Pharbitis purpureum [15]): 60% | pest or weed control at 80 g/ha (Viola tricolor [8]): 80%

— US7943551B2, “3-cyclopropyl-4-(3-thiobenzoyl) pyrazoles and their use as herbicides” (Bayer Cropscience AG, priority 2007, dated 2011)
